Experimental data published in publication PMC10057847, “Precision engineering of biological function with large-scale measurements and machine learning” (PLOS ONE, 2023).

Biological target: T1, pVER-IPTG-WT (Escherichia coli, UniProt P03023)
T1 construct: gene lacI; full-length LacI expressed from pVER plasmid; wild type
Assay: In vivo IPTG dose-response of LacI-regulated eYFP expression from the pVER plasmid in E. coli grown in rich M9 medium at 37 °C, measured by flow cytometry and fitted to the Hill equation by Bayesian MCMC (posterior mean and SD).
Assay type: cell-based
Conditions: read-out: log_ec50 (base-10 logarithm of EC50 in μmol/L) (converted)
Protocol: All reported measurements were completed using E. coli strain MG1655Δlac, in which the lactose operon of E. coli strain MG1655 (ATCC #47076) was replaced with the bleomycin resistance gene from Streptoalloteichus hindustanus (Shble).
Dose-response curves were measured with flow cytometry using E. coli MG1655Δlac transformed with variants of the pVER plasmid, described previously. The plasmid contained different variants of the lacI coding DNA sequence (CDS), as described in the text, and an expression cassette with enhanced yellow fluorescent protein (eYFP) under the control of the lactose operator (lacO). The lacI CDS was verified with Sanger sequencing for each variant. […]
Flow cytometry samples were measured with an Attune NxT flow cytometer equipped with a 96-well plate autosampler using a 488 nm excitation laser and a 530 nm ± 15 nm bandpass emission filter. Blank samples were measured with each batch of cell measurements, and an automated gating algorithm was used to discriminate cell events from non-cell events. Fluorescence calibration beads (Spherotech, part no. RCP-30-20A) were also measured with each batch of samples to facilitate calibration of flow cytometry data to molecules of equivalent fluorescein (MEF). […]

T1 sequence (P03023 whole entry): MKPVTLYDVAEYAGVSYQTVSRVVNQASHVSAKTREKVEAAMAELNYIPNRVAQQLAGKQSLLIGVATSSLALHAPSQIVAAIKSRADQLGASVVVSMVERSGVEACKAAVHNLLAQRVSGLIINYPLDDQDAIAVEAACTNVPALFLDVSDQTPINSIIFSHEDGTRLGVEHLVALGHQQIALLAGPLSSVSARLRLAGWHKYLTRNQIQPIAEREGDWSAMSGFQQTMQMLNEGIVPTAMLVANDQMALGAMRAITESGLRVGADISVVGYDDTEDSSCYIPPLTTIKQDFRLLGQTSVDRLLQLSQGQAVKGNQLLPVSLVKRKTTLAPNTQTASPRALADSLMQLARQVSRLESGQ

CC(C)S[C@@H]1O[C@H](CO)[C@H](O)[C@H](O)[C@H]1O [IPTG, isopropyl-β-D-thiogalactopyranoside]
EC50: 119 µmol/L
